Assay [1] deals with A2058 human melanoma cells. Put plainly: In vitro invasion assay (boyden chamber, matrigel). Format: cell-based. The settings on record: recombinant ATX plus 1 μM 18:1 LPC, 20 h, read-out: IC50 (nM) in cell invasion assay. How it is done:
The boyden chamber assay was used to assess the effect of three of the benzene sulfonamide analogues on cell invasion of A2058 human melanoma cells in vitro. The A2058 cells invade the matrigel layer in an LPA-dependent manner. Therefore, exogenous LPC and recombinant ATX was used as a source of LPA. Firstly, the compounds were screened at 10 μM concentration alongside BMP 22, a potent ATX inhibitor^31. […] Subsequently, dose response curves for compounds 3a, 3b and 14 were generated (FIG. 13B).
In vitro invasion assay—A2058 human melanoma cell line (gift from Dr. Timothy Clair, NCI, National Institutes of Health) was cultured in Dulbecco's modified Eagle's medium (DMEM) supplemented with 10% (V/V) FBS, 100 U/mL penicillin, 100 μg/mL streptomycin and 2 mM L-glutamine (Life Technologies). Cell invasion was performed using the 24-well BD Biocoat™ tumor invasion system (BD Biosciences, 8 μm-pore size). Briefly, the matrigel coating was rehydrated with PBS at 37° C. for 2 h. After removal of PBS, 5×10^4 A2058 cells in serum-free DMEM supplemented with 0.1% BSA were plated to each upper chamber. […] The fluorescent invaded cells were measured using the FLEXstation II plate reader (Molecular Devices) at excitation and emission wavelengths of 485 and 530 nm, respectively.

In assay [2] the target is T1, human recombinant ATX (Homo sapiens (Human), UniProt Q13822). Briefly: ATX inhibition, hydrolysis of nucleotide substrate pNP-TMP. It counts as biochemical. The conditions noted are these: 1 mM pNP-TMP, 4 nM ATX, compound 0 to 1 μM. How it is done:
(§1) ATX Generation: Human recombinant ATX was expressed as published previously, using Sf9 Spodoptera frugiperda ovary cells (Invitrogen, Carlsbad, Calif.).^13 Suspension cells were grown to a 1 liter quantity at a concentration of 1×10^6 cells/ml in Sf-900 III serum-free medium (Invitrogen) supplemented with 50 U/ml penicillin and 50 μg/ml streptomycin at 27° C. with agitation. Cells were then infected with high-titer baculovirus generated via Bac-to-Bac Baculovirus Expression System (Invitrogen) using the pCMV5 mammalian expression vector containing the C-terminal FLAG-tagged human ATX sequence (a generous gift from Dr. Junken Aoko, ohoku University, Aoba-ku, Sendai, Japan) subcloned into the pFastBacl transfer vector. […] Resultant ATX was then concentrated via centrifugation in Amicon Ultra 30,000 molecular weight cut off filter units (Millipore, Billerica, Mass.) and subsequent buffer exchange into storage buffer comprised of 50 mM Tris, pH 7.4 with 20% (v/v) ethylene glycol. Protein was held at −80° C. for long-term storage.
(§2) ATX Inhibition: ATX activity was assessed via hydrolysis of the synthetic, lipid-like FRET-based substrate FS-3 (Echelon Biosciences, Salt Lake City, Utah) or via hydrolysis of the nucleotide substrate p-nitrophenyl thymidine 5′-monophosphate (pNP-TMP) as described previously.^2 Reaction wells were loaded in 60 μl volumes in triplicate wells of half-area, black-wall 96-well plates in assay buffer consisting of 50 mM Tris, 140 mM NaCl, 5 mM KCl, 1 mM CaCl2, 1 mM MgCl2, […] BSA, pH 8.0. […] Fluorescence was read every 2 minutes for 1 hour at excitation/emission wavelengths of 485/528 nm for FS-3 hydrolysis or 405 nm absorbance for pNP-TMP hydrolysis using a FlexStation 3 microplate reader (Molecular Devices, Sunnyvale, Calif.). Data (relative fluorescence or absorbance) were then recorded as a mean value of the triplicates for each sample versus time. […] In the case of mechanism determination, the linear fluorescence data from time 10 minutes to 30 minutes were then transformed using a carboxyfluorescein standard curve to determine product concentration and plotted separately. Linear trend lines were inserted using Microsoft Excel, the slope of which represent the rates of reaction for each substrate concentration. This reaction rate data for each inhibitor concentration were then plotted against substrate (FS-3) concentration and simultaneously fitted via non-linear regression in the Michaelis-Menten equations for competitive, non-competitive, uncompetitive, and mixed-mode inhibition using GraphPad Prism version 5.0a. Mechanism of inhibition was determined by which curve fit had the best global fit (R^2 value).

The target in assay [3] is T1, human recombinant ATX. Briefly: ATX inhibition, hydrolysis of FRET substrate FS-3. The conditions noted are these: for IC50: 1 μM FS-3, 4 nM human recombinant ATX, 1 hour time point, read-out: IC50 (nM ± SD) vs FS-3. Format: biochemical. Here is the method:
as §1, §2

The target of another assay is LPA1 receptor (Homo sapiens (Human), UniProt Q92633). Put plainly: LPA-mediated Ca2+ mobilization, LPA1 RH7777 cells. It counts as cell-based. The conditions noted are these: for IC50: IC50 of compound in presence of EC50 concentration of LPA 18:1, read-out: EC50 or IC50 (μM), LPA1 RH7777; for Emax (% LPA), LPA1 RH7777: normalized to LPA 18:1 Emax. How it is done:
Cell Culture: LPA1 and LPA3 RH7777 rat hepatoma cells were generated in-house as described previously^34 and maintained in DMEM supplemented with 10% FBS and 2 mM L-glutamine with 250 μg/ml G418. LPA2 MEF mouse embryonic fibroblast cells were also derived from LPA1 and LPA2 double knockout mouse embryos as described previously^35 and maintained in DMEM supplemented with 10% FBS, 2 mM L-glutamine, 100 U/ml penicillin and 100 μg/ml streptomycin. LPA4 CHO chinese hamster ovary cells were a generous gift from Dr. Takao Shimizu (Tokyo University, Tokyo, Japan) and were maintained in Ham's F12 medium supplemented with 10% FBS, 2 mM L-glutamine and 350 μg/ml G418. LPA5 B103 rate neuroblastoma cells were derived in house via lentiviral transduction of FLAG-tagged LPA5 and puromycin selection as published^36 and maintained in DMEM supplemented with 10% FBS and 0.4 μg/ml puromycin. All cells were maintained at 37° C. with 5% CO2 in a humidified atmosphere.
Calcium Mobilization: As published previously, LPAR activation leads to transient calcium mobilization. […] All cells were plated in triplicate in 96-well, black-wall plates at a density of 5×10^4 cells per well and allowed to adhere overnight. LPA1 and LPA3 RH7777 cells were plated in poly-L-lysine coated plates. LPA5 B103 cells were plated in Matrigel-coated plates. After adherence, cells were serum-deprived in Krebs buffer consisting of 10 mM HEPES, pH 7.4 with 120 mM NaCl; 5 mM KCl; 1.8 mM CaCl2; 0.62 mM MgSO4; 6 mM D-glucose. LPA1 RH7777, LPA3 RH7777 and LPA5 B103 cells were serum-deprived for 4 hours, while LPA2 MEF cells were serum-deprived for 1 hour, and LPA4 CHO cells were not serum-deprived. Fura 2-AM was then loaded for 30 minutes at a concentration of 4.5 μg/ml in Krebs buffer with 0.45% (v/v) Pluronic F-127 (and additionally 0.1% BSA and 2.5 mM Probenicid for LPA4 CHO cells), after which cells were switched to fresh Krebs buffer. […] Fluorescence corresponding to calcium mobilization was immediately monitored upon addition every 3.42 seconds over a span of 70 seconds total at excitation/emission wavelengths of 340/510 and 380/510 nm. […] GraphPad Prism version 5.0a was then used to plot the data and fit non-linear regression curves in a variable slope model in order to determine the pharmacodynamics (EC50 or IC50) of the compounds in Ca^2+ mobilization.
(In general: A change in cytosolic calcium serves as a functional read-out for many receptors and channels.)

Here are results for 4 compounds from patent US11124490B2, “Autotaxin inhibitors” (UNIVERSITY OF TENNESSEE RESEARCH FOUNDATION, priority 2016, dated 2021).

Each structure is given as a SMILES string. Several values for one entry are separate records, joined by “and”; a condition that tells them apart may be missing. Equal entries are not always repeated.

By IC50 is commonly meant the concentration that inhibits the measured activity by half.

LPA1 receptor, sequence (Q92633 whole entry): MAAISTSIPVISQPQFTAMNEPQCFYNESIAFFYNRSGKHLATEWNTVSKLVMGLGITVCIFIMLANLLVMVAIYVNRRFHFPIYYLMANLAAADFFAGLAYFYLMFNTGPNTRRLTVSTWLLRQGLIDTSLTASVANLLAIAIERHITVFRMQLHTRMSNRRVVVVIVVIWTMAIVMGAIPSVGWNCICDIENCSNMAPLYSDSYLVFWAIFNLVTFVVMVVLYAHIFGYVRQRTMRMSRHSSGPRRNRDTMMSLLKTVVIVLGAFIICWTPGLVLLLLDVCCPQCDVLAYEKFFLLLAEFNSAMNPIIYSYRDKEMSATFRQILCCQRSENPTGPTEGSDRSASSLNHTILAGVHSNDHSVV

For `O=C(Nc1ccc(F)c(F)c1)c1cc(S(=O)(=O)N2CCOCC2)c(Cl)cc1Cl` [Compound 3a, 2,4-dichloro-N-(3,4-difluorophenyl)-5-(morpholinosulfonyl)benzamide], the IC50 in assay [1] was 1478 ± 12.3 nM. Also, on human recombinant ATX [2], the “pNP-TMP Inhibition” value is listed as “None”. Besides, on human recombinant ATX [3], the “fold IC50 improvement relative to screening hit 918013” value is given as “four-fold” and the IC50 was found to be 31.5 ± 2.11 nM.
As to `O=C(Nc1cc(F)c(F)c(F)c1)c1cc(S(=O)(=O)N2CCOCC2)c(Cl)cc1Cl` [Compound 3b, 2,4-dichloro-5-(morpholinosulfonyl)-N-(3,4,5-trifluorophenyl)benzamide], the IC50 in assay [1] turned out to be 528 ± 13.9 nM. For the same compound, on LPA1 receptor, the IC50 is 9.1 µM and the “Emax (% LPA), LPA1 RH7777” value turned out to be 37.99 % LPA. The “pNP-TMP Inhibition” value at human recombinant ATX [2] was “sparing effects and None”. The Mechanism result on human recombinant ATX [3] (mechanism of inhibition, FS-3 0 to 10 μM, inhibitor 0, 0.5×IC50 or 2×IC50) is on record as “Competitive”.
Turning to `O=C(Nc1cc(F)c(Cl)c(F)c1)c1cc(S(=O)(=O)N2CCOCC2)c(Cl)cc1Cl` [Compound 3f, 2,4-dichloro-N-(4-chloro-3,5-difluorophenyl)-5-(morpholinosulfonyl)benzamide], at LPA1 receptor, the IC50 came out at 3.96 µM and the “Emax (% LPA), LPA1 RH7777” value is 38.58 % LPA. On human recombinant ATX [2], the “pNP-TMP Inhibition” value is recorded as “None”. The IC50 on human recombinant ATX [3] was 83 nM and 83.7 nM.
Turning to `O=C(Nc1cc(Cl)c(F)c(Cl)c1)c1cc(S(=O)(=O)N2CCOCC2)c(Cl)cc1Cl` [Compound 3g, 2,4-dichloro-N-(3,5-dichloro-4-fluorophenyl)-5-(morpholinosulfonyl)benzamide], the results for the IC50 at LPA1 receptor and on human recombinant ATX [3] were 11.9 µM and 40.09 ± 0.33 nM, respectively. For the same compound, on LPA1 receptor, the “Emax (% LPA), LPA1 RH7777” value came to 36.08 % LPA. In addition, the “pNP-TMP Inhibition” value at human recombinant ATX [2] is listed as “None”.
